Numbered stars: 1 amine (or outer) side, 2 acyl side, 3 side chain; on linkers, the order of the positions; unused ones are H or OH. Square brackets hold non-standard residues; d marks the D form. Peptide text beside a SMILES is read from it. Pro(4-oxo) = O=C1CN[C@H](C(=O)O)C1; cisHyp = O=C(O)[C@@H]1C[C@H](O)CN1; X1 = O=C([C@H](CCCCO)N[*:1])[*:2]; Hyp = O=C(O)[C@@H]1C[C@@H](O)CN1; pGlu = O=C1CC[C@@H](C(=O)O)N1; hSer = N[C@@H](CCO)C(=O)O
Tests used:
[1] = system: cornea of rats with dry eye syndrome (ELGE); test: Corneal permeability of fluorescent dye (corneal damage) in ELGE rats with dry eye syndrome; format: in vivo, rat; settings: 5 μl/eye twice daily, day 14
From the text: (§1) In order to evaluate the eye protection effect on dry eye syndrome by YDE-001 to YDE-028 prepared in Example 1, a total of 320 Sprague-Dawley-type male rats (OrientBio, Seungnam, Korea) were adapted for 7 days. Thereafter, dry eye syndrome was induced in 264 test rats through extraorbital lacrimal gland excision (hereinafter, ELGE). 8 test rats without the eye abnormality were subjected to a sham operation as a control group.
(§2) The rat was systemically anesthetized by inhaling a mixed gas of 2% to 3% of isoflurane (Hana Pharm. Co., Hwasung, Korea), 70% of N2O, and 28.6% of O2 using a rodent anesthesia machine (Surgivet, Waukesha, Wis., USA) and a ventilator (Model 687, Harvard Apparatus, Cambridge, UK). Thereafter, the extraorbital lacrimal gland located in the subdermal area above the masseter muscle and […] was excised through a transverse incision in a size of 10 mm on the anterior part of the left ear tragus. The skin was sutured by a general method. […] After 6 days from the ELGE operation, it was checked through the Schirmer test by measuring the amount of tear secretion whether dry eye syndrome had been induced. Meanwhile, each rat of the control group with the sham operation was checked for the presence and location of the extraorbital lacrimal gland through a skin incision, and the skin was then sutured without the excision thereof (FIG. 4).
(§3) In addition, in order to evaluate the eye protection effect on dry eye syndrome by YDE-029 to YDE-043 prepared in Example 1, a total of 200 Sprague-Dawley-type male rats (OrientBio, Seungnam, Korea) were adapted for 7 days. Dry eye syndrome was induced in 165 test rats through the ELGE. 8 test rats without the eye abnormality were subjected to the sham operation as a control group. The ELGE was carried out as described above.
(§4) For YDE-001 to YDE-028, YY-102 and the 28 YDE-series were each dissolved in physiological saline at a concentration of 3 mg/ml and administered at a dose of 5 μl/eye at 9:30 am and 3:30 pm daily for 14 days after 7 days from the ELGE operation for a total of 28 times. The DS solution was dissolved in physiological saline at a concentration of 30 mg/ml and administered at a dose of […] twice a day for 14 days after 7 days from the ELGE operation for a total of 28 times. For the sham control and the ELGE control groups, the same stimulation as the administration was applied. In order to prevent excessive eye dryness, the same volume of physiological saline was applied in the same manner in place of the test substances.
as §4, with “Further, for YDE-029 to YDE-043,” for “For YDE-001 to YDE-028,”, “YDE-029 to YDE-043, YY-102 and” for “YDE-001 to YDE-028, YY-102 and”, “and the 15 YDE-series were” for “and the 28 YDE-series were”, “the test substances (FIG. 7).” for “the test substances.”
After YDE-001 to YDE-028 were each administered to the eyes […], the changes in the corneal permeability were checked.
In order to measure the corneal permeability, Zolethyl 50™ (Virbac Lab., Carros, France), an animal anesthetic, was intraperitoneally injected at a dose of 25 mg/kg. Thereafter, saline containing a 1% (v/v) fluorescent solution (fluorescein sodium salt, Tokyo Kasei Kogyo Co., Tokyo, Japan) was applied to the eyes at a dose of 5 μl/eye. The eyes thus treated were closed and fixed with a tape. After 1 hour, the remaining fluorescent solution was removed using a cotton swab (FIG. 12). […]

[2] = system: rats with dry eye syndrome (extraorbital lacrimal gland excision, ELGE); test: Amount of tear secretion (Schirmer test, cobalt chloride paper) in ELGE rats with dry eye syndrome; format: in vivo, rat; settings: for Tear Volumes, Day 7 / Tear Volumes, Day 14: ELGE rats, 3 mg/ml, 5 μl/eye twice daily; for Tear Volumes, Day 7: day 7 of administration; for Tear Volumes, Day 14: day 14 of administration; for Change in amount of tear secretion as compared with the ELGE control group: 3% solution as printed, after administration for 14 days
From the text: as §1, §2, §3, §4
as §4, with “Further, for YDE-029 to YDE-043,” for “For YDE-001 to YDE-028,”, “YDE-029 to YDE-043, YY-102 and” for “YDE-001 to YDE-028, YY-102 and”, “and the 15 YDE-series were” for “and the 28 YDE-series were”, “the test substances (FIG. 7).” for “the test substances.”
After 6 days from the ELGE surgery, the changes in the amount of tear secretion were measured at day 7 and day 14 after the administration of YDE-001 to YDE-043. The amount of tear secretion was measured by the […] travel distance of tears absorbed by cobalt chloride paper in a size of 1×15 mm (Toyo Roshi Kaisha, Japan).
The cobalt chloride paper was placed in the lateral canthus of a rat for 60 seconds to absorb tears (FIG. 9). The length of the area absorbed from the corner of the cobalt chloride paper was measured with an electronic digital caliper (Mytutoyo, Tokyo, Japan) (FIG. 8).

[3] = Stability in aqueous solution under long-term storage conditions (related substances); format: physicochemical; settings: 25° C., 75% RH
Method: In order to confirm the stability of each test substance in an aqueous solution, […] of each sample was dissolved in 1 ml of water to a concentration of 1 mg/ml, which was then charged to a glass vial, plugged with a rubber cap, sealed with an aluminum cap, and stored under long-term storage conditions (25° C., 75% RH). The stability of the test substance was evaluated by measuring the amount of related substances at the time of one week, two weeks, four weeks, eight weeks, and twelve weeks under the long-term storage conditions.

[4] = Table 6, study of YDE-001 to YDE-028, 3 mg/ml
[5] = Table 4, study of YDE-001 to YDE-028
[6] = Table 7, study of YDE-029 to YDE-043, 3 mg/ml
[7] = Table 5, study of YDE-029 to YDE-043

| Amount of related substances (after 12 weeks) [3] [%] | SMILES | Permeability of fluorescent dye [1, 4] [%] | Tear Volumes, Day 7 [2, 5] [mm^3] | Tear Volumes, Day 14 [2, 5] [mm^3] | Change in amount of tear secretion as compared with the ELGE control group ([2]; study of YDE-001 to YDE-028) | Permeability of fluorescent dye [1, 6] [%] | Tear Volumes, Day 7 [2, 7] [mm^3] | Tear Volumes, Day 14 [2, 7] [mm^3] | Change in amount of tear secretion as compared with the ELGE control group ([2]; study of YDE-029 to YDE-043) |
| --- | --- | --- | --- | --- | --- | --- | --- | --- | --- |
| 10.15 | CC(C)C[C@H](NC(=O)CNC(=O)[C@H](CCO)NC(=O)[C@H](CCC(N)=O)NC(=O)CNC(=O)[C@@H]1C[C@@H](O)CN1)C(=O)N[C@@H](C)C(=O)NCC(=O)N1CCC[C@H]1C(=O)N[C@@H](CCCCN)C(=O)O [YDE-026] (H-[Hyp]GQ[hSer]GLAGPK-OH) | 22.63 ± 11.23 | 4.32 ± 1.47 | 6.01 ± 1.83 |  |  |  |  |  |
| 12.74 | COC(=O)C[C@H](NC(=O)[C@H](CCC(N)=O)NC(=O)CNC(=O)[C@@H]1C[C@@H](O)CN1)C(=O)NCC(=O)N[C@@H](CC(C)C)C(=O)N[C@@H](C)C(=O)NCC(=O)N1CCC[C@H]1C(=O)N[C@@H](CCCCN)C(=O)O [YDE-027] (H-[Hyp]GQD(OMe)GLAGPK-OH) | 50.24 ± 11.94 | 2.82 ± 0.86 | 3.95 ± 1.52 | did not show any significant changes |  |  |  |  |
| 1.15 | CNC(=O)C[C@H](NC(=O)[C@H](CCC(N)=O)NC(=O)CNC(=O)[C@@H]1C[C@@H](O)CN1)C(=O)NCC(=O)N[C@@H](CC(C)C)C(=O)N[C@@H](C)C(=O)NCC(=O)N1CCC[C@H]1C(=O)N[C@@H](CCCCN)C(=O)O [YDE-028] (H-[Hyp]GQD(NHMe)GLAGPK-OH) | 41.17 ± 10.25 | 4.04 ± 0.99 | 4.73 ± 1.18 | did not show any significant changes |  |  |  |  |
| 2.77 | CC(C)C[C@H](NC(=O)CNC(=O)[C@H](CC(C)C)NC(=O)[C@H](CCC(N)=O)NC(=O)CNC(=O)[C@@H]1C[C@@H](O)CN1)C(=O)N[C@@H](C)C(=O)NCC(=O)N1CCC[C@H]1C(=O)N[C@@H](Cc1ccc(O)cc1)C(=O)O [YDE-029] (H-[Hyp]GQLGLAGPY-OH) |  |  |  |  | 63.45 ± 11.57 | 5.33 ± 1.43 | 6.03 ± 1.71 | did not show any significant changes |
| 2.74 | CC(C)C[C@H](NC(=O)[C@@H]1CCCN1C(=O)CNC(=O)[C@H](C)NC(=O)[C@H](CC(C)C)NC(=O)CNC(=O)[C@H](CC(C)C)NC(=O)[C@H](CCC(N)=O)NC(=O)CNC(=O)[C@@H]1C[C@@H](O)CN1)C(=O)O [YDE-030] (H-[Hyp]GQLGLAGPL-OH) |  |  |  |  | 30.60 ± 13.61 | 5.69 ± 1.79 | 6.65 ± 2.17 | did not show any significant changes |
| 34.82 | CC(C)C[C@H](NC(=O)CNC(=O)[C@H](CC(C)C)NC(=O)[C@H](CCC(N)=O)NC(=O)CNC(=O)[C@@H]1C[C@@H](O)CN1)C(=O)N[C@@H](C)C(=O)NCC(=O)N1CCC[C@H]1C(=O)N[C@@H](CCC(=O)O)C(=O)O [YDE-031] (H-[Hyp]GQLGLAGPE-OH) |  |  |  |  | 33.35 ± 11.01 | 5.63 ± 1.97 | 5.91 ± 0.85 |  |
| 6.16 | CC(C)C[C@H](NC(=O)CNC(=O)[C@H](CC(C)C)NC(=O)[C@H](CCC(N)=O)NC(=O)CNC(=O)[C@@H]1C[C@@H](O)CN1)C(=O)N[C@@H](C)C(=O)NCC(=O)N1CCC[C@H]1C(=O)N[C@@H](CCC(N)=O)C(=O)O [YDE-032] (H-[Hyp]GQLGLAGPQ-OH) |  |  |  |  | 58.90 ± 19.81 | 5.58 ± 0.80 | 5.03 ± 0.93 | did not show any significant changes |
| 5.6 | CC(C)C[C@H](NC(=O)CNC(=O)[C@H](CC(C)C)NC(=O)[C@H](CCC(N)=O)NC(=O)CNC(=O)[C@@H]1C[C@@H](O)CN1)C(=O)N[C@@H](C)C(=O)NCC(=O)N1CCC[C@H]1C(=O)N[C@@H](CCCCO)C(=O)O [YDE-033] (H-[Hyp]GQLGLAGP[X1]-OH) |  |  |  |  | 60.55 ± 21.22 | 4.99 ± 1.20 | 4.54 ± 1.16 | did not show any significant changes |
| 1.25 | CC(C)C[C@H](NC(=O)CNC(=O)[C@H](CC(C)C)NC(=O)[C@H](CCC(N)=O)NC(=O)CNC(=O)[C@@H]1C[C@H](O)CN1)C(=O)N[C@@H](C)C(=O)NCC(=O)N1CCC[C@H]1C(=O)N[C@@H](CCCCN)C(=O)O [YDE-034] (H-[cisHyp]GQLGLAGPK-OH) |  |  |  |  | 32.17 ± 12.94 | 6.16 ± 1.01 | 6.43 ± 1.86 | did not show any significant changes |
| 3.89 | CC(C)C[C@H](NC(=O)CNC(=O)[C@H](CC(C)C)NC(=O)[C@H](CCC(N)=O)NC(=O)CNC(=O)[C@@H]1CC(=O)CN1)C(=O)N[C@@H](C)C(=O)NCC(=O)N1CCC[C@H]1C(=O)N[C@@H](CCCCN)C(=O)O [YDE-035] (H-[Pro(4-oxo)]GQLGLAGPK-OH) |  |  |  |  | 27.62 ± 6.51 | 4.96 ± 0.96 | 6.25 ± 0.79 |  |
| 8.77 | CC(C)C[C@H](NC(=O)CNC(=O)[C@H](CC(C)C)NC(=O)[C@H](CCC(N)=O)NC(=O)CNC(=O)[C@@H]1CCC(=O)N1)C(=O)N[C@@H](C)C(=O)NCC(=O)N1CCC[C@H]1C(=O)N[C@@H](CCCCN)C(=O)O [YDE-036] ([pGlu]GQLGLAGPK-OH) |  |  |  |  | 57.87 ± 22.91 | 4.95 ± 1.05 | 5.13 ± 1.03 | did not show any significant changes |
